tested on: central benzodiazepine receptors; test: Central benzodiazepine receptor binding (test of Speth et al.); details: 1000 nM of the compound
Protocol: Compounds of the invention were assessed for their binding to the benzodiazepine receptor by the test of Speth et al. [Life Sci. 24, 351 (1979)] for central benzodiazepine receptors and LeFur et al. [Life Sci. 33, 449 (1983)] for peripheral receptors. The compounds were tested first at 1.0E-09, 1.0E-07 and 1.0E-05 M in single determination. […] The specific ligand binding to the receptor is defined as the difference between the total binding and the nonspecific binding determined in the presence of an excess of unlabelled ligand. In each experiment, the respective reference compound was tested concurrently with the test compounds in order to assess the assay suitability. It was tested at several concentrations (for IC50 value determination), and the data were compared with historical values. The assay was rendered valid if suitability criteria were met.
BZD central binding data for the compounds is provided in Table 3, wherein is provided the percent inhibition of central BZD in the presence of 1000 nM of the compound.

Structure (SMILES) | % Inhibition at 1000 nM for CBZD
Cc1ccc(-c2nc3ccc(C)cn3c2Cn2ncnc2C(=O)N(C)C)cc1 [Compound 70, 2-(6-Methyl-2-p-tolyl-imidazo[1,2-a]pyridin-3-ylmethyl)-2H-[1,2,4]triazole-3-carboxylic acid dimethylamide] | + (percentage of inhibition of central BZD site binding is greater than 50% but less than 80% in the presence of 1000 nM of the compound)
CNCCOc1nccc(NCc2c(-c3ccc(Cl)cc3)nc3ccccn23)n1 [Compound 185, N-((2-(4-chlorophenyl)imidazo[1,2-a]pyridin-3-yl)methyl)-2-(2-(methylamino)ethoxy)pyrimidin-4-amine] | ++ (percentage of inhibition of central BZD site binding is greater than 80% in the presence of 1000 nM of the compound)
Cc1ccc(-c2nc3c(Cl)cc(Cl)cn3c2CN2CCCC2=O)cc1 [Compound 116, 1-(6,8-Dichloro-2-p-tolyl-imidazo[1,2-a]pyridin-3-ylmethyl)-pyrrolidin-2-one] | ++ (percentage of inhibition of central BZD site binding is greater than 80% in the presence of 1000 nM of the compound)
Cc1ccc(-c2nc3ccc(C)cn3c2COn2nnc3ccccc32)cc1 [Compound 174, 1-((6-methyl-2-p-tolylH-imidazo[1,2-a]pyridin-3-yl)methoxy)-1H-benzo[d][1,2,3]triazole] | ++ (percentage of inhibition of central BZD site binding is greater than 80% in the presence of 1000 nM of the compound)
Clc1ccc(-c2nc3ccccn3c2Cn2cnnn2)cc1 [Compound 41, 3-((1H-tetrazol-1-yl)methyl)-2-(4-chlorophenyl)imidazo[1,2-a]pyridine] | ++ (percentage of inhibition of central BZD site binding is greater than 80% in the presence of 1000 nM of the compound)
Fc1ccc(-c2nc3ccc(Cl)cn3c2CNc2nc(F)cc(F)n2)cc1 [Compound 169, N-((6-Chloro-2-(4-fluorophenyl)imidazo[1,2-a]pyridin-3-yl)methyl)-4,6-difluoropyrimidin-2-amine] | ++ (percentage of inhibition of central BZD site binding is greater than 80% in the presence of 1000 nM of the compound)
CCOC(=O)c1cc(-c2ccco2)nn1Cc1c(-c2ccc(Cl)cc2)nc2ccccn12 [Compound 31, Ethyl 1-((2-(4-chlorophenyl)imidazo[1,2-a]pyridin-3-yl)methyl)-3-(furan-2-yl)-1H-pyrazole-5-carboxylate] | + (percentage of inhibition of central BZD site binding is greater than 50% but less than 80% in the presence of 1000 nM of the compound)
NC(=O)c1ncnn1Cc1c(-c2ccc(Cl)cc2)nc2cccnn12 [Compound 89, 1-((2-(4-chlorophenyl)imidazo[1,2-b]pyridazin-3-yl)methyl)-1H-1,2,4-triazole-5-carboxamide] | ++ (percentage of inhibition of central BZD site binding is greater than 80% in the presence of 1000 nM of the compound)
CNC(=O)c1ncnn1Cc1c(-c2ccc(C)cc2)nc2ccc(C)cn12 [Compound 68, 2-(6-Methyl-2-p-tolyl-imidazo[1,2-a]pyridin-3-ylmethyl)-2H-[1,2,4]triazole-3-carboxylic acid methylamide] | ++ (percentage of inhibition of central BZD site binding is greater than 80% in the presence of 1000 nM of the compound)
Fc1ccc(-c2nc3ccccn3c2Cn2ccnn2)cc1 [Compound 48, 3-((1H-1,2,3-triazol-1-yl)methyl)-2-(4-fluorophenyl)H-imidazo[1,2-a]pyridine] | ++ (percentage of inhibition of central BZD site binding is greater than 80% in the presence of 1000 nM of the compound)
CCOC(=O)c1cc2ccccc2n1Cc1c(-c2ccc(Cl)cc2)nc2ccccn12 [Compound 37, Ethyl 1-((2-(4-chlorophenyl)imidazo[1,2-a]pyridin-3-yl)methyl)-1H-indole-2-carboxylate] | − (percentage of inhibition of central BZD site binding is less than 50% in the presence of 1000 nM of the compound)
O=C1C=C(N2CCCCC2)CN1Cc1c(-c2ccc(Cl)cc2)nc2ccccn12 [Compound 239, 1-((2-(4-chlorophenyl)imidazo[1,2-a]pyridin-3-yl)methyl)-4-(piperidin-1-yl)-1H-pyrrol-2(5H)-one] | ++ (percentage of inhibition of central BZD site binding is greater than 80% in the presence of 1000 nM of the compound)
Cc1ccc(-c2nc3ccc(C)cn3c2CNc2cc(C)ns2)cc1 [Compound 151, 3-methyl-N-((6-methyl-2-p-tolylH-imidazo[1,2-a]pyridin-3-yl)methyl)isothiazol-5-amine] | ++ (percentage of inhibition of central BZD site binding is greater than 80% in the presence of 1000 nM of the compound)
O=C1OCCN1Cc1c(-c2ccc(Cl)cc2)nc2ccc(Cl)cn12 [Compound 111, 3-((6-chloro-2-(4-chlorophenyl)H-imidazo[1,2-a]pyridin-3-yl)methyl)oxazolidin-2-one] | ++ (percentage of inhibition of central BZD site binding is greater than 80% in the presence of 1000 nM of the compound)
Clc1ccc(-c2nc3ccccn3c2Cn2cncn2)cc1 [Compound 67, 3-((1H-1,2,4-triazol-1-yl)methyl)-2-(4-chlorophenyl)imidazo[1,2-a]pyridine] | ++ (percentage of inhibition of central BZD site binding is greater than 80% in the presence of 1000 nM of the compound)
CCOC(=O)c1nccn1Cc1c(-c2ccc(Cl)cc2)nc2ccccn12 [Compound 26, Ethyl 1-((2-(4-chlorophenyl)H-imidazo[1,2-a]pyridin-3-yl)methyl)-1H-imidazole-2-carboxylate] | ++ (percentage of inhibition of central BZD site binding is greater than 80% in the presence of 1000 nM of the compound)
CN(C)CCNc1cncc(Cc2c(-c3ccc(Cl)cc3)nc3ccccn23)n1 [Compound 190, N1-(6-((2-(4-chlorophenyl)imidazo[1,2-a]pyridin-3-yl)methyl)pyrazin-2-yl)-N2,N2-dimethylethane-1,2-diamine] | ++ (percentage of inhibition of central BZD site binding is greater than 80% in the presence of 1000 nM of the compound)
Cc1ccc(-c2nc3ccc(C)cn3c2CN2CCN(C)C2=O)cc1 [Compound 92, 1-methyl-3-((6-methyl-2-p-tolylH-imidazo[1,2-a]pyridin-3-yl)methyl)imidazolidin-2-one] | ++ (percentage of inhibition of central BZD site binding is greater than 80% in the presence of 1000 nM of the compound)
Cc1ccc(-c2nc3ccc(C)cn3c2Cn2ccnc2C(=O)N(C)C)cc1 [Compound 71, N,N-Dimethyl-1-((6-methyl-2-p-tolylH-imidazo[1,2-a]pyridin-3-yl)methyl)-1H-imidazole-2-carboxamide] | + (percentage of inhibition of central BZD site binding is greater than 50% but less than 80% in the presence of 1000 nM of the compound)
COC1=CC(=O)N(Cc2c(-c3ccc(C)cc3)nc3ccc(C)cn23)C1 [Compound 94, 4-methoxy-1-((6-methyl-2-p-tolyl-H-imidazo[1,2-a]pyridin-3-yl)methyl)-1H-pyrrol-2(5H)-one] | ++ (percentage of inhibition of central BZD site binding is greater than 80% in the presence of 1000 nM of the compound)
CNc1nnc(Cc2c(-c3ccc(Cl)cc3)nc3ccccn23)s1 [Compound 235, 5-((2-(4-chlorophenyl)imidazo[1,2-a]pyridin-3-yl)methyl)-N-methyl-1,3,4-thiadiazol-2-amine] | + (percentage of inhibition of central BZD site binding is greater than 50% but less than 80% in the presence of 1000 nM of the compound)
CN(C)CCNc1ccn(Cc2c(-c3ccc(Cl)cc3)nc3ccccn23)c(=O)n1 [Compound 134, 1-((2-(4-chlorophenyl)imidazo[1,2-a]pyridin-3-yl)methyl)-4-(2-(dimethylamino)ethylamino)pyrimidin-2(1H)-one] | ++ (percentage of inhibition of central BZD site binding is greater than 80% in the presence of 1000 nM of the compound)
CCOC(=O)c1nccn1Cc1c(-c2ccc(C)cc2)nc2ccc(C)cn12 [Compound 12, 1-(6-Methyl-2-p-tolyl-imidazo[1,2-a]pyridin-3-ylmethyl)-1H-imidazole-2-carboxylic acid ethyl ester] | ++ (percentage of inhibition of central BZD site binding is greater than 80% in the presence of 1000 nM of the compound)
COC(=O)c1ncnn1Cc1c(-c2ccc(Cl)cc2)nc2ccccn12 [Compound 24, 2-[2-(4-Chloro-phenyl)-imidazo[1,2-a]pyridin-3-ylmethyl]-2H-[1,2,4]triazole-3-carboxylic acid methyl ester] | ++ (percentage of inhibition of central BZD site binding is greater than 80% in the presence of 1000 nM of the compound)
Cc1ccc(-c2nc3ccc(C)cn3c2Cn2[nH]c(C)cc2=O)cc1 [Compound 91, 1,2-dihydro-3-methyl-1-((6-methyl-2-p-tolyl-H-imidazo[1,2-a]pyridin-3-yl)methyl)pyrazol-5-one] | ++ (percentage of inhibition of central BZD site binding is greater than 80% in the presence of 1000 nM of the compound)
Cc1ccc(-c2nc3ccc(C)cn3c2CNc2ccccn2)cc1 [Compound 140, N-((6-methyl-2-p-tolylH-imidazo[1,2-a]pyridin-3-yl)methyl)pyridin-2-amine] | ++ (percentage of inhibition of central BZD site binding is greater than 80% in the presence of 1000 nM of the compound)
